Experimental data: publication PMC5706701, “Development of a homogenous high-throughput assay for inositol hexakisphosphate kinase 1 activity” (PLoS ONE, 2017)
Counter-ions that a name gives are not always drawn.

Target: T1, Human IP6K1 (Homo sapiens, UniProt Q92551)
T1 construct: GST (N, cleaved yes); made in house; host or cells: C43 E. coli, pGEX-6P-2
Assay: IP6K1 high-throughput screen of the Sigma LOPAC (ADP-Glo Max, single point);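 also: final compound concentration 10µM in 5% DMSO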
Assay type: biochemical

[1] = Sigma LOPAC single-point screen, ADP-Glo Max raw signal per well
[2] = Sigma LOPAC single-point screen, Z-score from plate average and StDev
[3] = LOPAC single-point screen, ADP-Glo Max raw signal per well
[4] = LOPAC single-point screen, Z-score from raw signal with plate average and StDev
[5] = LOPAC single-point screen, Z-score against plate average and StDev
[6] = LOPAC single-point screen, ADP-Glo Max luminescence raw signal per well
[7] = LOPAC single-point screen, Z-score from plate average and StDev
[8] = LOPAC single-point screen, Z-score relative to plate average and StDev

T1 sequence (Q92551 whole entry): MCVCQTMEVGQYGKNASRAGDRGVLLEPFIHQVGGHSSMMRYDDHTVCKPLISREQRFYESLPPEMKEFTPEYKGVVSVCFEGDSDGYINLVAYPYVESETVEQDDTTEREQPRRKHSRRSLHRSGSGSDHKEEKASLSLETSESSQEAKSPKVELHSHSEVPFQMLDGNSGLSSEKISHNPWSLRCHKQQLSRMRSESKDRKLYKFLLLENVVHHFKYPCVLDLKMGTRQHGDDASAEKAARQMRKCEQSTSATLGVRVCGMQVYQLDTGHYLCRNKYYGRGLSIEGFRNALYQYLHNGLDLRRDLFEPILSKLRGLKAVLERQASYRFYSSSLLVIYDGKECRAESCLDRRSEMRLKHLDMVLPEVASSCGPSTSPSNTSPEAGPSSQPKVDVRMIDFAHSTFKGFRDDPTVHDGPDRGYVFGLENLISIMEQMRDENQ

Structure (SMILES) | Raw Signal [1] | Z-score [2] | Raw Signal [3] | Z-score [5] | also measured
C[C@@H]1O[C@H](C[N+](C)(C)C)CS1.[I-] [OXA-22 iodide] | 57438 | 0.4612 | – | – | –
CC1COc2c(N3CCN(C)CC3)c(F)cc3c(=O)c(C(=O)O)cn1c23 (stereo not drawn) [Ofloxacin] | – | – | 52269 | – | Z-score [4]: -0.357
CCCCCCCC/C=C\CCCCCCCC(=O)O [Oleic Acid] | – | – | 53829 | – | Z-score [4]: -0.09485
Cn1cnc2c(NCc3ccccc3)nc(NCCO)nc21 [Olomoucine] | 60982 | 1.107 | – | – | –
C[C@@H]1O[C@@H](O[C@H]2C[C@@H](O)[C@]3(CO)[C@H]4[C@H](O)C[C@]5(C)[C@@H](C6=CC(=O)OC6)CC[C@]5(O)[C@@H]4CC[C@]3(O)C2)[C@H](O)[C@H](O)[C@H]1O [Ouabain] | 56928 | 0.4259 | – | – | –
O=C(O)CCc1nc(-c2ccccc2)c(-c2ccccc2)o1 [Oxaprozin] | 57771 | 0.5675 | – | – | –
O=c1[nH]c2ccccc2n1CCCN1CCN(C(c2ccccc2)c2ccccc2)CC1 [Oxatomide] | – | – | 55062 | 0.1123 | –
NC(=O)CN1CC(O)CC1=O (stereo not drawn) [Oxiracetam] | – | – | 55053 | 0.1108 | –
CCn1cc(C(=O)O)c(=O)c2cc3c(cc21)OCO3 [Oxolinic acid] | 60270 | 0.9874 | – | – | –
C[N+](C)(C)CC#CCN1CCCC1=O [Oxotremorine methiodide] | – | – | – | – | Raw Signal [6]: 63016; Z-score [7]: 1.4488
O=C(O)/C=C/C(=O)O.O=C(O)/C=C/C(=O)O.O=C(O)/C=C/C(=O)O.O=C1CCCN1CC#CCN1CCCC1.O=C1CCCN1CC#CCN1CCCC1 [Oxotremorine sesquifumarate salt] | – | – | 55438 | 0.1755 | –
CCN(CC)CC#CCOC(=O)C(O)(c1ccccc1)C1CCCCC1 (stereo not drawn) [Oxybutynin Chloride] | – | – | 55631 | 0.2079 | –
Cc1cc(C(C)(C)C)c(O)c(C)c1CC1=NCCN1 [Oxymetazoline hydrochloride] | – | – | 52488 | – | Z-score [4]: -0.3202
Nc1ccc(CCN2CCN(c3cccc(C(F)(F)F)c3)CC2)cc1 [PAPP] | – | – | 56132 | 0.02102 | –
COc1cccc(-c2cc(=O)c3ccccc3o2)c1N [PD 98,059] | – | – | 54412 | – | Z-score [4]: -0.3131
Cc1cccc(C(=O)NCN2CCN(c3ccccc3C#N)CC2)c1.O=C(O)/C=C\C(=O)O [PD 168,077 maleate] | – | – | – | – | Raw Signal [6]: 64247; Z-score [7]: 1.598
N=C1Sc2ccccc2C2=NCCCN12 [PD 404,182] | – | – | 56268 | 0.315 | –
CCC(C)N(C)C(=O)c1cc2ccccc2c(-c2ccccc2Cl)n1 (stereo not drawn) [PK 11195] | – | – | – | – | Raw Signal [6]: 54307; Z-score [8]: -0.6351
Cc1nc(N=Nc2ccc(S(=O)(=O)O)cc2S(=O)(=O)O)c(COP(=O)(O)O)c(C=O)c1O [PPADS] | – | – | 55598 | -0.08273 | –
Cc1nc(N=Nc2cc(S(=O)(=O)[O-])c3cc([N+](=O)[O-])cc(S(=O)(=O)[O-])c3c2)c(COP(=O)([O-])[O-])c(C=O)c1O.[Na+].[Na+].[Na+].[Na+] [PPNDS tetrasodium] | – | – | – | – | Raw Signal [6]: 31816; Z-score [8]: -3.794
O=C(OCCN1CCOCC1)C1(c2ccccc2)CCCCC1 [PRE-084] | – | – | 55518 | 0.1889 | –
CCCCCCCCCCCCCCCC(=O)NCCO [Palmitoylethanolamide] | – | – | – | – | Raw Signal [6]: 51451; Z-score [8]: -0.4944
CC(=O)O[C@H]1C[C@@H]2CC[C@@H]3[C@H](CC[C@@]4(C)[C@H]3C[C@H]([N+]3(C)CCCCC3)[C@@H]4OC(C)=O)[C@@]2(C)C[C@@H]1[N+]1(C)CCCCC1 [Pancuronium bromide] | 59072 | 0.7861 | – | – | –
COc1ccc(Cc2nccc3cc(OC)c(OC)cc23)cc1OC [Papaverine hydrochloride] | 61808 | 1.246 | – | – | –
C#CCN(C)Cc1ccccc1 [Pargyline hydrochloride] | – | – | 54085 | – | Z-score [4]: -0.3767
NC[C@@H]1O[C@H](O[C@H]2[C@@H](O)[C@H](O[C@@H]3[C@@H](O)[C@H](N)C[C@H](N)[C@H]3O[C@H]3O[C@H](CO)[C@@H](O)[C@H](O)[C@H]3N)O[C@@H]2CO)[C@H](N)[C@@H](O)[C@@H]1O [Paromomycin sulfate] | – | – | 55765 | -0.05028 | –
C=C1C(=O)O[C@H]2[C@H]1CC/C(C)=C/CC[C@@]1(C)O[C@@H]21 [Parthenolide] | 56472 | 0.3492 | – | – | –
CN1C(C)(C)CCCC1(C)C [Pempidine tartrate] | 56899 | 0.421 | – | – | –
N=C(N)c1ccc(OCCCCCOc2ccc(C(=N)N)cc2)cc1 [Pentamidine isethionate] | – | – | 54696 | 0.05083 | –
C[N+]1(CCCCC[N+]2(C)CCCC2)CCCC1.O=C([O-])C(O)C(O)C(=O)O.O=C([O-])C(O)C(O)C(=O)O [Pentolinium di[L(+)-tartrate]] | 60160 | 0.9689 | – | – | –
